This note sets out measurements from ChEMBL document CHEMBL2086259, “13,28-Epoxy triterpenoid saponins from Ardisia japonica selectively inhibit proliferation of liver cancer cells without affecting normal liver cells” (Bioorg Med Chem Lett, 2012).

For one experiment, the system named is MCF7. Put plainly: Cytotoxicity against human MCF7 cells after 72 hrs by MTT assay. Type of experiment: functional, cell-based. As to conditions: MCF7, 72 h. Background: Formazan colour is commonly taken as a measure of viable cells.
For a further experiment, the system named is SGC-7901. Put plainly: Cytotoxicity against human SGC7901 cells after 72 hrs by MTT assay. Type of experiment: functional, cell-based. As to conditions: SGC-7901, 72 h.
In another experiment the test system is A549. Put plainly: Cytotoxicity against human A549 cells after 72 hrs by MTT assay. It counts as functional, cell-based. As to conditions: A549, 72 h.
Another experiment has as its system Bcap37. Kind of experiment: Cytotoxicity against human Bcap37 cells after 72 hrs by MTT assay. It counts as functional, cell-based. The settings on record: Bcap37, 72 h.
A short description of experiment [1]: Cytotoxicity against human LTEP-A2 cells after 72 hrs by MTT assay. It counts as functional, cell-based. As to conditions: LTEP-A2, 72 h.
In another experiment the test system is OVCAR-3. Kind of experiment: Cytotoxicity against human OVCAR3 cells after 72 hrs by MTT assay. Type of experiment: functional, cell-based. The settings on record: OVCAR-3, 72 h.
A short description of experiment [2]: Cytotoxicity against human HL-7702 cells after 72 hrs by MTT assay. Type of experiment: cell-based. The settings on record: L02, 72 h.
Another experiment has as its system DU-145. Kind of experiment: Cytotoxicity against human DU145 cells after 72 hrs by MTT assay. Type of experiment: functional, cell-based. The settings on record: DU-145, 72 h.
The next experiment has as its system NCI-H460. Put plainly: Cytotoxicity against human H460 cells after 72 hrs by MTT assay. It counts as functional, cell-based. The settings on record: NCI-H460, 72 h.
For another experiment, the system named is MKN-45. Put plainly: Cytotoxicity against human MKN45 cells after 72 hrs by MTT assay. Type of experiment: functional, cell-based. The settings on record: MKN-45, 72 h.
In the next experiment the test system is NCI-H157. Put plainly: Cytotoxicity against human NCI-H157 cells after 72 hrs by MTT assay. Type of experiment: functional, cell-based. The settings on record: NCI-H157, 72 h.
A further experiment deals with Bel-7402. Kind of experiment: Cytotoxicity against human Bel7402 cells after 72 hrs by MTT assay. It counts as functional, cell-based. As to conditions: Bel-7402, 72 h.
The next experiment concerns HepG2. Put plainly: Cytotoxicity against human HepG2 cells after 72 hrs by MTT assay. It counts as functional, cell-based. As to conditions: HepG2, 72 h.
The subject of a further experiment is HCT-116. Put plainly: Cytotoxicity against human HCT116 cells after 72 hrs by MTT assay. As to conditions: HCT-116, 72 h. It counts as functional, cell-based.
In the next experiment the test system is Caco-2. Kind of experiment: Cytotoxicity against human Caco2 cells after 72 hrs by MTT assay. As to conditions: Caco-2, 72 h. Type of experiment: functional, cell-based.
In another experiment the test system is NCI-H446. Kind of experiment: Cytotoxicity against human NCI-H446 cells after 72 hrs by MTT assay. It counts as functional, cell-based. The settings on record: NCI-H446, 72 h.

The structures appear in SMILES notation. pIC50: −log10 of the molar value.

Usually pIC50 stands for −log10 of the IC50, conventionally taken in molar units. Consider `COc1cccc2c1C(=O)c1c(O)c3c(c(O)c1C2=O)C[C@@](O)(C(=O)CO)C[C@@H]3O[C@H]1C[C@H](N)[C@@H](O)[C@H](C)O1` [EPIRUBICIN], for which the pIC50 was 5.90 in the experiment with MCF7; 6.29 in the experiment on SGC-7901; 6.06 in the experiment with A549; 6.05 in the experiment on Bcap37; 5.47 in [1]; 6.12 in the experiment with OVCAR-3. In addition, the pIC50 in experiment [2] is 5.76; in the experiment with DU-145, 5.40; in the experiment on NCI-H460, 5.17; in the experiment with MKN-45 it was 6.18; in the experiment with NCI-H157, 5.76; in the experiment with Bel-7402, 5.91. In addition, the pIC50 was 5.65 in the experiment on HepG2, 6.24 in the experiment on HCT-116, 6.39 in the experiment with Caco-2 and 5.63 with NCI-H446.

In the case of `C[C@@H]1O[C@@H](O[C@H]2[C@H](O[C@H]3CO[C@@H](O[C@H]4CC[C@]5(C)[C@H]6CC=C7[C@@H]8C[C@@](C)(CO)CC[C@]8(CO)[C@@H]8O[C@@H]8[C@@]7(C)[C@]6(C)CC[C@H]5C4(C)C)[C@H](O[C@@H]4O[C@H](CO)[C@@H](O)[C@H](O)[C@H]4O)[C@H]3O)O[C@H](CO)[C@@H](O)[C@@H]2O)[C@H](O)[C@H](O)[C@H]1O` [ARDISIANOSIDE K], the pIC50 (in experiment [2]; in the experiment on Bel-7402; in the experiment on HepG2) was under 4.00 in each case.

Consider `CC1(C)CC[C@]23CO[C@@]4(CC[C@@H]5[C@@]6(C)CC[C@H](O[C@@H]7OC[C@H](O[C@@H]8O[C@H](CO)[C@@H](O)[C@H](O)[C@H]8O)[C@H](O)[C@H]7O[C@@H]7O[C@H](CO)[C@@H](O)[C@H](O)[C@H]7O)C(C)(C)[C@@H]6CC[C@@]5(C)[C@]4(C)C[C@H]2O)[C@@H]3C1`, for which the pIC50 was under 4.00 in experiment [2], 5.38 in the experiment on Bel-7402 and 4.84 with HepG2.

Turning to `C[C@@H]1O[C@@H](O[C@H]2[C@H](O[C@H]3CO[C@@H](O[C@H]4CC[C@]5(C)[C@H]6CC[C@]78OC[C@@]9(CC[C@](C)(C=O)C[C@H]97)C(=O)C[C@@]8(C)[C@]6(C)CC[C@H]5C4(C)C)[C@H](O)[C@H]3O)O[C@H](CO)[C@@H](O)[C@@H]2O)[C@H](O)[C@H](O)[C@H]1O` [ARDISIAMAMILLOSIDE H], the pIC50 (in experiment [2]; with Bel-7402; with HepG2) was under 4.00 each time.

As to `C[C@@H]1O[C@@H](O[C@H]2[C@H](O[C@H]3CO[C@@H](O[C@H]4CC[C@]5(C)[C@H]6CC=C7[C@@H]8C[C@@](C)(CO)CC[C@]8(CO)[C@H](O)C[C@@]7(C)[C@]6(C)CC[C@H]5C4(C)C)[C@H](O[C@@H]4O[C@H](CO)[C@@H](O)[C@H](O)[C@H]4O)[C@H]3O)O[C@H](CO)[C@@H](O)[C@@H]2O)[C@H](O)[C@H](O)[C@H]1O` [ARDISIAMAMILLOSEDE C], the negative-log IC50 (pIC50) (in experiment [2]; in the experiment on Bel-7402; with HepG2) was under 4.00 throughout.

On to `CC1(C)CC[C@]23CO[C@@]4(CC[C@@H]5[C@@]6(C)CC[C@H](O[C@@H]7OC[C@H](O[C@@H]8O[C@H](CO)[C@@H](O)[C@H](O[C@@H]9O[C@H](CO)[C@@H](O[C@@H]%10O[C@H](CO)[C@@H](O)[C@H](O)[C@H]%10O)[C@H](O[C@@H]%10O[C@H](CO)[C@@H](O)[C@H](O)[C@H]%10O)[C@H]9O)[C@H]8O[C@@H]8OC[C@@H](O)[C@H](O)[C@H]8O)[C@H](O)[C@H]7O[C@@H]7O[C@H](CO)[C@@H](O)[C@H](O)[C@H]7O)C(C)(C)[C@@H]6CC[C@@]5(C)[C@]4(C)C[C@H]2O)[C@@H]3C1` [ARDISIANOSIDES A], for which the results for the pIC50 (in [2]; in the experiment with Bel-7402; with HepG2) were under 4.00, 5.86 and 5.42, respectively.
